Ten compounds from patent publication US6825018B1, “Sorbitol dehydrogenase, gene encoding the same and use thereof” (priority 1999, dated 2004) can be followed below.

The structures appear in SMILES notation.

Type in all cases: biochemical, Gluconobacter oxydans G624
The target in test [1] is T1, His-tagged SLDH (Gluconobacter oxydans, UniProt Q9KWR5). Put plainly: SLDH activity: substrate specificity. The following applies: glycine/NaOH buffer pH 10.1, coenzyme NADP+; for Activity: substrate varied.
T1 sequence (Q9KWR5 entry or part of it): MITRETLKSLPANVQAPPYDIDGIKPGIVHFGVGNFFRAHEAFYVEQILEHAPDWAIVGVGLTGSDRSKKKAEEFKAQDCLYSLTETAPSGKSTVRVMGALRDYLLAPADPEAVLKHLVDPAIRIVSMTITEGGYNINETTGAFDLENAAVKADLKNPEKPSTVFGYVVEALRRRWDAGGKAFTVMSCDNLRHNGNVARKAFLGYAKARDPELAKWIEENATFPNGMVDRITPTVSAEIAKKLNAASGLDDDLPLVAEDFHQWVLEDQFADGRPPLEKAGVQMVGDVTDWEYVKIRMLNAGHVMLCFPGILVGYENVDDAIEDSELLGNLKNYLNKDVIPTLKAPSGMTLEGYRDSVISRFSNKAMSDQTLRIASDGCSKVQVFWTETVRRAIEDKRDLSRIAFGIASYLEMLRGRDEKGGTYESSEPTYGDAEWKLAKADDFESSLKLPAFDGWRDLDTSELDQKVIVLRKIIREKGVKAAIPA
The target of test [2] is T1, His-tagged SLDH. Put plainly: Confirmation of SLDH activity: reaction of purified His-tagged SLDH with sorbitol, product analysis. The note with it: 10 mM (1.82 mg/ml) sorbitol, pH 10.1, 5 mM NADP^+, 25° C., 24 hours. On the procedure:
In the same manner as in the above-mentioned (2) except that the cell-free extract to be applied was by 10 ml, the resin after His-tagged SLDH adsorption was washed 6 times, and His-tagged SLDH was eluted with 50 mM imidazole and 100 mM NaCl-containing 20 mM Tris-HCl (5 ml, pH 8.0), His-tagged SLDH was purified. The obtained His-tagged SLDH was reacted with sorbitol and the resulting product was analyzed. The composition of the reaction solution (2 ml) was 10 mM (1.82 mg/ml) sorbitol, 0.1 M glycine/NaOH buffer (pH 10.1), 5 mM NADP^+ and His-tagged SLDH 0.2 ml (41.4 μg protein) and the reaction was carried out at 25° C. for 24 hours. […] Thus, His-tagged SLDH purified by cobalt type IMAC was confirmed to be sorbitol dehydrogenase that oxidizes sorbitol and generates sorbose.

Test [3] concerns the target T1, His-tagged SLDH. Kind of test: SLDH activity: coenzyme dependency and active pH range (increase in NAD(P)H, absorbance at 340 nm). The following applies: for Activity: substrate sorbitol, 25° C., coenzyme varied. The method, then: To a solution containing 0.1 ml of 50 mM NAD^+ (or NADP^+), 0.2 ml of 500 mM buffer, 10 μl of His-tagged SLDH solution (2.1 μg protein) prepared in Example 2(4) and distilled water (0.29 ml) was added to 500 mM sorbitol (0.4 ml) to start the reaction (25° C.), and increase in NADH (or NADPH) was measured by a spectrophotometer (UV-2200; Shimadzu) based on absorbance at 340 nm as an index. For the reaction solutions having pH 10.1 and pH 9.0, glycine/NaOH buffer was used, and for reaction solutions having pH 8.0 and pH 7.0, potassium phosphate buffer was used. The enzyme activity (1 unit) was defined to be an amount to generate 1 μmol of NADH (or NADPH) per minute. The molecular extinction coefficient of NAD(P)H was 6.3 mM^−1 cm^−1. The protein amount was measured with bovine serum albumin (BSA) as a standard by the Lowry method.

Setting [4] is: pH 7.0, potassium phosphate buffer.
Setting [5] is: pH 8.0, potassium phosphate buffer.

Consider `O[C@H]1[C@H](O)[C@@H](O)[C@H](O)[C@@H](O)[C@H]1O` [inositol], for which, in test [1], the “Use as substrate by SLDH (in words)” value is on record as “no action” and the Activity stood at 0 U/mg protein.

Compound `OC[C@@H](O)[C@@H](O)[C@H](O)[C@@H](O)CO` [sorbitol] returned an Activity in test [1] of 130.2 U/mg protein. In addition, the “conversion efficiency (sorbitol to sorbose)” value in test [2] (41.4 μg protein) was 62%. In addition, the sorbitol remaining in test [2] came to 0.70 mg/mL.

For `O=C(CO)[C@H](O)[C@@H](O)[C@H](O)CO` [sorbose], the sorbose generated in test [2] was found to be 1.12 mg/mL.

Take `OC[C@@H](O)[C@@H](O)[C@@H](O)CO` [ribitol]: in test [1], the “Use as substrate by SLDH (in words)” value is given as “no action” and the Activity turned out to be 0 U/mg protein.

Turning to `OCC(O)CO` [glycerol], in test [1], the “Use as substrate by SLDH (in words)” value is “no action” and the Activity came to 0 U/mg protein.

For `OC[C@@H](O)[C@H](O)[C@@H](O)CO` [xylitol], in test [1], the “Use as substrate by SLDH (in words)” value was “no action” and the Activity turned out to be 0 U/mg protein.

Consider `NC(=O)c1ccc[n+]([C@@H]2O[C@H](COP(=O)([O-])OP(=O)(O)OC[C@H]3O[C@@H](n4cnc5c(N)ncnc54)[C@H](OP(=O)(O)O)[C@@H]3O)[C@@H](O)[C@H]2O)c1` [NADP^+], for which, in test [3] (NAD^+ versus NADP^+ as coenzyme), the “Coenzyme specificity (in words)” value is listed as “higher specificity”. In addition, the Activity was determined as 4.2 U/mg protein in test [3] (setting [4]); 22.9 U/mg protein in test [3] (setting [5]); 30.0 U/mg protein in test [3] (pH 9.0, glycine/NaOH buffer); 130.2 U/mg protein in test [3] (pH 10.1, glycine/NaOH buffer).

Consider `OC[C@@H](O)[C@@H](O)[C@H](O)[C@H](O)CO` [mannitol], for which, in test [1], the “Use as substrate by SLDH (in words)” value is on record as “could utilize” and the Activity worked out at 85.7 U/mg protein.

`NC(=O)c1ccc[n+]([C@@H]2O[C@H](COP(=O)([O-])OP(=O)(O)OC[C@H]3O[C@@H](n4cnc5c(N)ncnc54)[C@H](O)[C@@H]3O)[C@@H](O)[C@H]2O)c1` [NAD^+]: the Activity in test [3] (setting [4]) is 0.1 U/mg protein; in test [3] (setting [5]), 1.2 U/mg protein; in test [3] (pH 9.0, glycine/NaOH buffer) it was 3.4 U/mg protein; in test [3] (pH 10.1, glycine/NaOH buffer), 8.1 U/mg protein.

In the case of `OC[C@@H](O)C(O)[C@H](O)CO` [arabitol], in test [1], the “Use as substrate by SLDH (in words)” value was “could utilize” and the Activity is on record as 88.1 U/mg protein.
